Laboratory results taken from PubChem BioAssay (NCI).
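1) Cells in 96-well plates. 2) Compound, 48 h, 5 concentrations. 3) Linear interpolation between surrounding doses. 4) Unreached endpoint = highest concentration. GI50 = concentration required for 50% inhibition of growth. TGI marks complete inhibition of growth.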

How the values were obtained:
Test in all cases: NCI-60 cell line screen, 48 h
CAKI-1 renal = tested on: CAKI-1 renal
786-0 renal = tested on: 786-0 renal
COLO 205 colon = tested on: COLO 205 colon
HL-60(TB) leukemia = tested on: HL-60(TB) leukemia
BT-549 breast = tested on: BT-549 breast
OVCAR-8 ovarian = tested on: OVCAR-8 ovarian
PC-3 prostate = tested on: PC-3 prostate
NCI-H522 lung = tested on: NCI-H522 lung
KM12 colon = tested on: KM12 colon
A549 NSCLC = tested on: A549 NSCLC
SW-620 colon = tested on: SW-620 colon
SK-OV-3 ovarian = tested on: SK-OV-3 ovarian
HCT-15 colon = tested on: HCT-15 colon
MDA-MB-231 breast = tested on: MDA-MB-231 breast
M14 melanoma = tested on: M14 melanoma
SF-539 CNS = tested on: SF-539 CNS
HCT-116 colon = tested on: HCT-116 colon
OVCAR-5 ovarian = tested on: OVCAR-5 ovarian
NCI-H460 lung = tested on: NCI-H460 lung
DU-145 prostate = tested on: DU-145 prostate
HS 578T breast = tested on: HS 578T breast
A498 renal = tested on: A498 renal
EKVX NSCLC = tested on: EKVX NSCLC
HCC-2998 colon = tested on: HCC-2998 colon
SK-MEL-2 melanoma = tested on: SK-MEL-2 melanoma
NCI/ADR-RES ovarian = tested on: NCI/ADR-RES ovarian
ACHN renal = tested on: ACHN renal
RXF 393 renal = tested on: RXF 393 renal
RPMI-8226 leukemia = tested on: RPMI-8226 leukemia
MDA-MB-435 = tested on: MDA-MB-435
SN12C renal = tested on: SN12C renal
CCRF-CEM leukemia = tested on: CCRF-CEM leukemia
K-562 leukemia = tested on: K-562 leukemia
SF-268 CNS = tested on: SF-268 CNS
MCF7 breast = tested on: MCF7 breast
SNB-75 CNS = tested on: SNB-75 CNS
NCI-H226 lung = tested on: NCI-H226 lung
UACC-62 melanoma = tested on: UACC-62 melanoma
SK-MEL-28 melanoma = tested on: SK-MEL-28 melanoma
SNB-19 CNS = tested on: SNB-19 CNS
LOX IMVI melanoma = tested on: LOX IMVI melanoma
OVCAR-4 ovarian = tested on: OVCAR-4 ovarian
T-47D breast = tested on: T-47D breast
IGROV1 ovarian = tested on: IGROV1 ovarian
SF-295 CNS = tested on: SF-295 CNS
HT29 colon = tested on: HT29 colon
HOP-92 NSCLC = tested on: HOP-92 NSCLC
HOP-62 NSCLC = tested on: HOP-62 NSCLC
UACC-257 melanoma = tested on: UACC-257 melanoma
MALME-3M melanoma = tested on: MALME-3M melanoma
UO-31 renal = tested on: UO-31 renal
TK-10 renal = tested on: TK-10 renal
U251 CNS = tested on: U251 CNS
SK-MEL-5 melanoma = tested on: SK-MEL-5 melanoma
MOLT-4 leukemia = tested on: MOLT-4 leukemia
SR leukemia = tested on: SR leukemia

## CCNC(=O)Oc1ccc(/C(=C(/C)c2ccc(OC)cc2)c2ccc(OCCN3CCCCCC3)cc2)cc1
CAKI-1 renal
  GI50: 2.34 µM
  TGI: 8.3 µM
786-0 renal
  GI50: 1.86 µM
  TGI: 6.78 µM
COLO 205 colon
  GI50: 1.07 µM
  TGI: 2.38 µM
HL-60(TB) leukemia
  GI50: 1.39 µM
  TGI: 4.59 µM
BT-549 breast
  GI50: 5.06 µM
  TGI: 10.9 µM
OVCAR-8 ovarian
  GI50: 5.72 µM
  TGI: 12.2 µM
PC-3 prostate
  GI50: 2.75 µM
  TGI: 9.67 µM
NCI-H522 lung
  GI50: 6.43 µM
  TGI: 13.5 µM
KM12 colon
  GI50: 8.88 µM
  TGI: 16.7 µM
A549 NSCLC
  GI50: 3.88 µM
  TGI: 10.3 µM
SW-620 colon
  GI50: 1.3 µM
  TGI: 3.28 µM
SK-OV-3 ovarian
  GI50: 5.01 µM
  TGI: 11.1 µM
HCT-15 colon
  GI50: 1.57 µM
  TGI: 6.68 µM
MDA-MB-231 breast
  GI50: 2.74 µM
  TGI: 9.28 µM
M14 melanoma
  GI50: 0.913 µM
  TGI: 1.83 µM
SF-539 CNS
  GI50: 2.08 µM
  TGI: 7.74 µM
HCT-116 colon
  GI50: 2.57 µM
  TGI: 8.68 µM
OVCAR-5 ovarian
  GI50: 6.48 µM
  TGI: 12.8 µM
NCI-H460 lung
  GI50: 1.95 µM
  TGI: 6.91 µM
DU-145 prostate
  GI50: 6.76 µM
  TGI: 13.2 µM
HS 578T breast
  GI50: 2.48 µM
  TGI: 11.3 µM
A498 renal
  GI50: 2.67 µM
  TGI: 9.65 µM
EKVX NSCLC
  GI50: 6.39 µM
  TGI: 13.5 µM
HCC-2998 colon
  GI50: 2.93 µM
  TGI: 9.29 µM
SK-MEL-2 melanoma
  GI50: 5.18 µM
  TGI: 11.2 µM
NCI/ADR-RES ovarian
  GI50: 4.41 µM
  TGI: 11.1 µM
ACHN renal
  GI50: 6.04 µM
  TGI: 12.2 µM
RXF 393 renal
  GI50: 1.3 µM
  TGI: 5.03 µM
RPMI-8226 leukemia
  GI50: 1.18 µM
  TGI: 3.21 µM
MDA-MB-435
  GI50: 3.69 µM
  TGI: 10.3 µM
SN12C renal
  GI50: 5.55 µM
  TGI: 12.1 µM
CCRF-CEM leukemia
  GI50: 2.25 µM
  TGI: 33.4 µM
K-562 leukemia
  GI50: 1.22 µM
  TGI: 3.37 µM
SF-268 CNS
  GI50: 6.69 µM
  TGI: 15 µM
MCF7 breast
  GI50: 0.786 µM
  TGI: 7.41 µM
SNB-75 CNS
  GI50: 6.03 µM
  TGI: 12.9 µM
NCI-H226 lung
  GI50: 6.42 µM
  TGI: 14.6 µM
UACC-62 melanoma
  GI50: 1.79 µM
  TGI: 6.33 µM
SK-MEL-28 melanoma
  GI50: 1.45 µM
  TGI: 4.48 µM
SNB-19 CNS
  GI50: 5.92 µM
  TGI: 12.2 µM
LOX IMVI melanoma
  GI50: 0.865 µM
  TGI: 1.91 µM
OVCAR-4 ovarian
  GI50: 5.16 µM
  TGI: 11.7 µM
T-47D breast
  GI50: 1.23 µM
  TGI: 7.88 µM
IGROV1 ovarian
  GI50: 5.42 µM
  TGI: 12.5 µM
SF-295 CNS
  GI50: 1.15 µM
  TGI: 3.44 µM
HT29 colon
  GI50: 1.66 µM
  TGI: 6.08 µM
HOP-92 NSCLC
  GI50: 1.89 µM
  TGI: 9.17 µM
HOP-62 NSCLC
  GI50: 5.84 µM
  TGI: 12.3 µM
UACC-257 melanoma
  GI50: 1.06 µM
  TGI: 2.76 µM
MALME-3M melanoma
  GI50: 1.1 µM
  TGI: 2.57 µM
UO-31 renal
  GI50: 1.43 µM
  TGI: 5.53 µM
TK-10 renal
  GI50: 9.35 µM
  TGI: 16.5 µM
U251 CNS
  GI50: 2.55 µM
  TGI: 8.87 µM
SK-MEL-5 melanoma
  GI50: 2.23 µM
  TGI: 8.13 µM
MOLT-4 leukemia
  GI50: 1.44 µM
  TGI: 5.06 µM
SR leukemia
  GI50: 1.06 µM
  TGI: 2.76 µM
